≈ marks a conversion by molar mass, not a printed value. Numbered stars: 1 amine (or outer) side, 2 acyl side, 3 side chain; on linkers, the order of the positions; unused ones are H or OH. Side chains are listed from the residue outwards. Peptide text beside a SMILES is read from it. * marks the point of attachment. C20 diacid = O=C(O)CCCCCCCCCCCCCCCCCCC(=O)*; C18 diacid = O=C(O)CCCCCCCCCCCCCCCCC(=O)*; γGlu = O=C(O)[C@H](CCC(=O)[*:2])N[*:1]
Assay: Assay (IV) determination of solubility
Assay type: physicochemical
Procedure: Assay (IV)—Determination of Solubility
The mimylin peptide was dissolved in water at ˜500 nmol/ml and mixed 1:1 with a series of buffers (100 mM glycylglycine pH 3.0, 100 mM glycylglycine pH 4.0, 100 mM glycylglycine pH 5.0, 100 mM bistrispropane pH 6.0, 100 mM bistrispropane pH 6.5, 100 mM bistrispropane pH 7.0, 100 mM bistrispropane pH 7.5, 100 mM bistrispropane pH 8.0).

CC(C)C[C@H](NC(=O)[C@H](CCC(=O)O)NC(=O)[C@H](Cc1cnc[nH]1)NC(=O)[C@H](CC(C)C)NC(=O)[C@H](CCC(=O)O)NC(=O)[C@H](C)NC(=O)[C@H](CO)NC(=O)[C@H](CC(C)C)NC(=O)[C@H](CCCNC(=N)N)NC(=O)CNC(=O)[C@H](CC(C)C)NC(=O)[C@@H](NC(=O)[C@H](C)NC(=O)[C@@H](NC(=O)[C@H](CO)NC(=O)[C@@H](NC(=O)[C@H](CCC(=O)O)NC(=O)[C@H](CO)NC(=O)[C@H](C)NC(=O)[C@H](CCC(=O)O)NC(=O)CCCCCCCCCCCCCCCCC(=O)O)C(C)C)[C@@H](C)O)C(C)C)C(=O)N[C@@H](C)C(=O)N[C@H](C(=O)N[C@@H](CC(C)C)C(=O)N1CCC[C@H]1C(=O)N[C@@H](CCCNC(=N)N)C(=O)N[C@H](C(=O)N[C@@H](CCC(=O)O)C(=O)N[C@H](C(=O)NCC(=O)N1CCC[C@H]1C(=O)N[C@@H](CCC(=O)O)C(=O)N[C@@H](CO)C(=O)N1CCC[C@H]1C(N)=O)[C@@H](C)O)[C@@H](C)O)[C@@H](C)O [compound 24, [N-terminal(C18 diacid), 5V, 9V]mimylin] ({C18 diacid}-EASEVSTAVLGRLSAELHELATLPRTETGPESP-NH2)
Solubility (pH 3.0): ≧200 μM
solubility at 18 h (pH 4.0): 150 µM (≈ 562 µg/mL)
solubility at 18 h (pH 5.0): 145 µM (≈ 543 µg/mL)
Solubility (pH 6.0): ≧200 μM
Solubility (pH 6.5): ≧200 μM
Solubility (pH 7.0): ≧200 μM
Solubility (pH 7.5): ≧200 μM
Solubility (pH 8.0): ≧200 μM

CC(C)C[C@H](NC(=O)CNC(=O)[C@H](CO)NC(=O)[C@H](C)NC(=O)CC[C@H](NC(=O)CCCCCCCCCCCCCCCCCCC(=O)O)C(=O)O)C(=O)N[C@@H](CO)C(=O)N[C@H](C(=O)N[C@@H](C)C(=O)N[C@H](C(=O)N[C@@H](CC(C)C)C(=O)NCC(=O)N[C@@H](CCCNC(=N)N)C(=O)N[C@@H](CC(C)C)C(=O)N[C@@H](CO)C(=O)N[C@@H](CCC(N)=O)C(=O)N[C@@H](CCC(=O)O)C(=O)N[C@@H](CC(C)C)C(=O)N[C@@H](Cc1cnc[nH]1)C(=O)N[C@@H](CCC(=O)O)C(=O)N[C@@H](CC(C)C)C(=O)N[C@@H](CCC(N)=O)C(=O)N[C@H](C(=O)N[C@@H](Cc1ccc(O)cc1)C(=O)N1CCC[C@H]1C(=O)N[C@@H](CCCNC(=N)N)C(=O)N[C@H](C(=O)N[C@@H](CCC(=O)O)C(=O)N[C@H](C(=O)NCC(=O)N[C@@H](CO)C(=O)N[C@@H](C)C(=O)N[C@H](C(=O)N[C@@H](Cc1ccc(O)cc1)C(N)=O)[C@@H](C)O)[C@@H](C)O)[C@@H](C)O)[C@@H](C)O)C(C)C)[C@@H](C)O [compound 122, [N-terminal(C20 diacid-gGlu), des1, 4G, 9V, 15Q, 21Q, 23Y, 30S, 31A, 32T, 33Y]mimylin] ({C20 diacid-γGlu}-ASGLSTAVLGRLSQELHELQTYPRTETGSATY-NH2)
Solubility (pH 3.0): ≧200 μM
Solubility (pH 4.0): ≧200 μM
solubility at 18 h (pH 5.0): 32 µM (≈ 124 µg/mL)
Solubility (pH 6.0): ≧200 μM
Solubility (pH 6.5): ≧200 μM
Solubility (pH 7.0): ≧200 μM
Solubility (pH 7.5): ≧200 μM
Solubility (pH 8.0): ≧200 μM

CC(C)C[C@H](NC(=O)CNC(=O)[C@H](CO)NC(=O)[C@H](C)N)C(=O)N[C@@H](CO)C(=O)N[C@H](C(=O)N[C@@H](C)C(=O)N[C@@H](C)C(=O)N[C@@H](CC(C)C)C(=O)NCC(=O)N[C@@H](CCCNC(=N)N)C(=O)N[C@@H](CC(C)C)C(=O)N[C@@H](CO)C(=O)N[C@@H](CCC(N)=O)C(=O)N[C@@H](CCC(=O)O)C(=O)N[C@@H](CC(C)C)C(=O)N[C@@H](Cc1cnc[nH]1)C(=O)N[C@@H](CCC(=O)O)C(=O)N[C@@H](CC(C)C)C(=O)N[C@@H](CCC(N)=O)C(=O)N[C@H](C(=O)N[C@@H](Cc1ccc(O)cc1)C(=O)N1CCC[C@H]1C(=O)N[C@@H](CCCNC(=N)N)C(=O)N[C@H](C(=O)N[C@@H](CCC(=O)O)C(=O)N[C@H](C(=O)NCC(=O)N[C@@H](CO)C(=O)N[C@@H](CCCCNC(=O)CC[C@H](NC(=O)CCCCCCCCCCCCCCCCCCC(=O)O)C(=O)O)C(=O)N[C@H](C(=O)N[C@@H](Cc1ccc(O)cc1)C(N)=O)[C@@H](C)O)[C@@H](C)O)[C@@H](C)O)[C@@H](C)O)[C@@H](C)O [compound 107, [des1, 4G, 15Q, 21Q, 23Y, 30S, 31K(C20 diacid-gGlu), 32T, 33Y]mimylin] (H-ASGLSTAALGRLSQELHELQTYPRTETGSK([γGlu-C20 diacid])TY-NH2)
Solubility (pH 3.0): ≧200 μM
Solubility (pH 4.0): ≧200 μM
Solubility (pH 5.0): ≧200 μM
solubility at 18 h (pH 6.0): 148 µM (≈ 580 µg/mL)
solubility at 18 h (pH 6.5): 129 µM (≈ 506 µg/mL)
solubility at 18 h (pH 7.0): 74 µM (≈ 290 µg/mL)
Solubility (pH 7.5): ≧200 μM
Solubility (pH 8.0): ≧200 μM

CC(C)C[C@H](NC(=O)CNC(=O)[C@H](CO)NC(=O)[C@H](C)NC(=O)CC[C@H](NC(=O)CCCCCCCCCCCCCCCCCCC(=O)O)C(=O)O)C(=O)N[C@@H](CO)C(=O)N[C@H](C(=O)N[C@@H](C)C(=O)N[C@H](C(=O)N[C@@H](CC(C)C)C(=O)NCC(=O)N[C@@H](CCCNC(=N)N)C(=O)N[C@@H](CC(C)C)C(=O)N[C@@H](CO)C(=O)N[C@@H](CCC(N)=O)C(=O)N[C@@H](CCC(=O)O)C(=O)N[C@@H](CC(C)C)C(=O)N[C@@H](Cc1cnc[nH]1)C(=O)N[C@@H](CCC(=O)O)C(=O)N[C@@H](CC(C)C)C(=O)N[C@@H](CCC(N)=O)C(=O)N[C@H](C(=O)N[C@@H](Cc1ccc(O)cc1)C(=O)N1CCC[C@H]1C(=O)N[C@@H](CCCNC(=N)N)C(=O)N[C@H](C(=O)N[C@@H](CCC(=O)O)C(=O)N[C@H](C(=O)NCC(=O)N[C@@H](CO)C(=O)NCC(=O)N[C@H](C(=O)N[C@@H](Cc1ccc(O)cc1)C(N)=O)[C@@H](C)O)[C@@H](C)O)[C@@H](C)O)[C@@H](C)O)[C@@H](C)O)[C@@H](C)O [compound 124, [N-terminal(C20 diacid-gGlu), des1, 4G, 9T, 15Q, 21Q, 23Y, 30S, 31G, 32T, 33Y]mimylin] ({C20 diacid-γGlu}-ASGLSTATLGRLSQELHELQTYPRTETGSGTY-NH2)
Solubility (pH 3.0): ≧200 μM
Solubility (pH 4.0): ≧200 μM
solubility at 18 h (pH 5.0): 61 µM (≈ 237 µg/mL)
Solubility (pH 6.0): ≧200 μM
Solubility (pH 6.5): ≧200 μM
Solubility (pH 7.0): ≧200 μM
Solubility (pH 7.5): ≧200 μM
Solubility (pH 8.0): ≧200 μM

CC(C)C[C@H](NC(=O)[C@H](CCC(=O)O)NC(=O)[C@H](Cc1cnc[nH]1)NC(=O)[C@H](CC(C)C)NC(=O)[C@H](CCC(=O)O)NC(=O)[C@H](C)NC(=O)[C@H](CO)NC(=O)[C@H](CC(C)C)NC(=O)[C@H](CCCNC(=N)N)NC(=O)CNC(=O)[C@H](CC(C)C)NC(=O)[C@@H](NC(=O)[C@H](C)NC(=O)[C@@H](NC(=O)[C@H](CO)NC(=O)[C@H](CC(C)C)NC(=O)[C@H](CCC(=O)O)NC(=O)[C@H](CO)NC(=O)[C@H](C)NC(=O)[C@H](CCC(=O)O)NC(=O)CCCCCCCCCCCCCCCCC(=O)O)[C@@H](C)O)C(C)C)C(=O)N[C@@H](C)C(=O)N[C@H](C(=O)N[C@@H](CC(C)C)C(=O)N1CCC[C@H]1C(=O)N1CCC[C@H]1C(=O)N[C@H](C(=O)N[C@@H](CCC(=O)O)C(=O)N[C@H](C(=O)NCC(=O)N1CCC[C@H]1C(=O)N[C@@H](CCC(=O)O)C(=O)N[C@@H](CO)C(=O)N1CCC[C@H]1C(N)=O)[C@@H](C)O)[C@@H](C)O)[C@@H](C)O [compound 31, [N-terminal(C18 diacid), 9V, 25P]mimylin] ({C18 diacid}-EASELSTAVLGRLSAELHELATLPPTETGPESP-NH2)
Solubility (pH 3.0): ≧200 μM
Solubility (pH 4.0): ≧200 μM
Solubility (pH 5.0): ≧200 μM
Solubility (pH 6.0): ≧200 μM
Solubility (pH 6.5): ≧200 μM
Solubility (pH 7.0): ≧200 μM
Solubility (pH 7.5): ≧200 μM
Solubility (pH 8.0): ≧200 μM

CC[C@H](C)[C@H](NC(=O)[C@H](C)NC(=O)[C@@H](NC(=O)[C@H](CO)NC(=O)[C@@H](NC(=O)[C@H](CCC(=O)O)NC(=O)[C@H](CO)NC(=O)[C@H](C)NC(=O)[C@H](CCC(=O)O)NC(=O)CCCCCCCCCCCCCCCCC(=O)O)[C@@H](C)CC)[C@@H](C)O)C(=O)N[C@H](C(=O)NCC(=O)N[C@@H](CCCNC(=N)N)C(=O)N[C@@H](CC(C)C)C(=O)N[C@@H](CO)C(=O)N[C@@H](C)C(=O)N[C@@H](CCC(=O)O)C(=O)N[C@@H](CC(C)C)C(=O)N[C@@H](Cc1cnc[nH]1)C(=O)N[C@@H](CCC(=O)O)C(=O)N[C@@H](CC(C)C)C(=O)N[C@@H](C)C(=O)N[C@H](C(=O)N[C@@H](CC(C)C)C(=O)N1CCC[C@H]1C(=O)N[C@@H](CCCNC(=N)N)C(=O)N[C@H](C(=O)N[C@@H](CCC(=O)O)C(=O)N[C@H](C(=O)NCC(=O)N1CCC[C@H]1C(=O)N[C@@H](CCC(=O)O)C(=O)N[C@@H](CO)C(=O)N1CCC[C@H]1C(N)=O)[C@@H](C)O)[C@@H](C)O)[C@@H](C)O)[C@@H](C)CC [compound 37, [N-terminal(C18 diacid), 5I, 9I, 10I]mimylin] ({C18 diacid}-EASEISTAIIGRLSAELHELATLPRTETGPESP-NH2)
Solubility (pH 3.0): ≧200 μM
solubility at 18 h (pH 4.0): 18 µM (≈ 67.9 µg/mL)
Solubility (pH 5.0): ≧200 μM
Solubility (pH 6.0): ≧200 μM
Solubility (pH 6.5): ≧200 μM
Solubility (pH 7.0): ≧200 μM
Solubility (pH 7.5): ≧200 μM
Solubility (pH 8.0): ≧200 μM

Source: patent publication US9593149B2, “Amylin and calcitonin receptor agonist” (Novo Nordisk A/S, priority 2014, dated 2017)
